According to PubChem BioAssay AID504605 (National Center for Advancing Translational Sciences (NCATS), 2011):

Tested on: mouse liver microsomes, LC-MS/MS, half-life
Assay: Inhibitors of 12-hLO: Mouse Liver Microsome Stability Profiling
Details: at 1 µM; stronger effect = higher value
From the text: Assay Provider: Holman, T.R., University of California, Santa Cruz Grant #: MH08128301 Screening Center PI: Austin, C.P. Screening Center: NIH Chemical Genomics Center [NCGC] Human lipoxygenase 12hLO is a member of the closely related lipoxygenase family of enzymes which catalyze the site-specific oxidation of arachidonic acid to various hormone precursor molecules and as such is a candidate for drug development in a variety of disease areas, such as cancer and inflammation. After qHTS, hits were confirmed in follow-up assays, and leads were optimized through SAR. The resulting lead compound was further characterized through a battery ADME-Tox experiments. These assay and this assay describes its mouse liver microsome stability. Mouse liver microsomes are created through broken up endoplasmic reticulum from mouse liver. These liver microsomes contain many drug metabolizing enzymes, such as Cytochome P-450s and flavin-containing monooxygenases. Because metabolism is major way of drug clearance, this is an important result.
1uM of compound in incubated in mouse liver microsome; the reference compound is ketanserin. Compounds are incubated at 37 degrees C for different time periods: 0, 5, 15, 30, 45, and 60 minutes. Samples are analyzed with LC-MS/MS.

half-life: 9 min
Compound: CC(=O)NC(c1cccs1)c1cc(Br)c2cccnc2c1O (stereo unspecified)
